Results on 17 molecules are retold here after patent publication US20240189315A1, “Cyclic Pyridine Derivatives as cGAS Inhibitors” (Boehringer Ingelheim International GmbH, priority 2022, published 2024).

In series [1] the target is cellular cGAS activity in dsDNA-stimulated human whole blood (Homo sapiens (Human), UniProt Q8N884). Particulars: Table 4; compounds and methyl ester prodrugs of PCT/EP2022/062480 and PCT/EP2022/062496; read-out: hWB IC50; cited from earlier work.
Series [2] concerns pathway directly downstream of cGAS in cGAMP-stimulated THP1-Dual cells. Particulars: Table 4; compounds and methyl ester prodrugs of PCT/EP2022/062480 and PCT/EP2022/062496; cited from earlier work.
Series [3] concerns the target T1, cellular cGAS activity in baculovirus-stimulated THP1-Dual cells (Homo sapiens (Human), UniProt Q8N884). Conditions: Table 4; compounds and methyl ester prodrugs of PCT/EP2022/062480 and PCT/EP2022/062496; read-out: THP1(vir) IC50; cited from earlier work.
The conditions of series [4]: amide bond, HATU, 25.0 °C, 1.0 h.
For the next series, the target named is Human cGAS enzyme (Homo sapiens (Human), UniProt Q8N884). Briefly: Human cGAS enzyme assay (hcGAS IC50, in vitro), cGAMP formation by RapidFire MS.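 Also: recombinant human cGAS activated by 45 bp dsDNA with 30 µM each ATP and GTP, 90 min, cGAMP vs cyclic-di-GMP standard by MS, 8-point titration from 10 µM.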 Format: biochemical. Particulars: Table 3; Compound No. 5 of WO 2022/174012 re-tested in the applicant's assay.
Sequence of Human cGAS enzyme (Q8N884 whole entry): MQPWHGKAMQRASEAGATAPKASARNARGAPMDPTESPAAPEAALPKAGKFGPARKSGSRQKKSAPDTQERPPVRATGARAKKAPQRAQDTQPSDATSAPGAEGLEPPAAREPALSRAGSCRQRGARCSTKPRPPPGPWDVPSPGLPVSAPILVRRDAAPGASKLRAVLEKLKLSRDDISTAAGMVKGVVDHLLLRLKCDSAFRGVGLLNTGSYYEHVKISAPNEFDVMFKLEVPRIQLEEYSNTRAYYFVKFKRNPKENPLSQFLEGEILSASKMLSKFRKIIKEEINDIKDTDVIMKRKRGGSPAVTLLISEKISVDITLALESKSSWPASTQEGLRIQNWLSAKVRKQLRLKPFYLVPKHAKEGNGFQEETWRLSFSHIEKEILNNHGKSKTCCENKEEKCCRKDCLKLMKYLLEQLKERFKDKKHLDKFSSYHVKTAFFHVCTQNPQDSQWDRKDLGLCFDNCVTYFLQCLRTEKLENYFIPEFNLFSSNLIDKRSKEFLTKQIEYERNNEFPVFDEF
Series [5] has as its system pathway directly downstream of cGAS in cGAMP-stimulated THP1-Dual cells. In words: cGAMP stimulated counter cell assay (THP1(cGAMP) IC50): IFN induction in cGAMP-stimulated THP1-Dual cells. It counts as cell-based, human. Conditions: Homo sapiens, THP1-Dual; Table 3; Compound No. 5 of WO 2022/174012; read-out: THP1(cGAMP) IC50. In a few lines: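 THP1-Dual cells with IRF-driven Lucia luciferase reporter, stimulated by empty baculovirus (cGAS route) or by cGAMP (counter assay); 5000 cells/well, 8-point dilutions from 10 μM top, 1% DMSO, 18 h at 37° C. Luminescence read; IC50 by 4-parameter logistic fit against unstimulated low control.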

Another series relates to THP-1. Particulars: Table 3, page 67/68 of WO 2022/174012; read-out: cellular IC50-value group (IFNβ ELISA stimulated with THP-1); cited from earlier work. For orientation: In an ELISA, binding on a coated surface is turned into a signal by an enzyme label.
In series [6] the target is T1, cellular cGAS activity in baculovirus-stimulated THP1-Dual cells. In words: Human cGAS cell assay (THP1(vir) IC50): IFN induction in virus-stimulated THP1-Dual cells, IRF Lucia luciferase reporter.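 Also: Eight-point dilution series starting at 10 µM, 1% DMSO, 18 h at 37 °C, luminescence read-out, virus-free wells as 0% and DMSO-treated virus-stimulated wells as 100%.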 Conditions: Table 3; Compound No. 5 of WO 2022/174012; read-out: THP1(vir) IC50. It counts as cell-based. In general terms: In a reporter assay the amount or activity of a reporter protein is the signal.

Structures are written as SMILES. Where two headings read alike, the source gives them in different places.

T1 sequence (Q8N884 whole entry): as above
Sequence of cellular cGAS activity in dsDNA-stimulated human whole blood (Q8N884 whole entry): as above

As a reminder, the IC50 is the midpoint of a concentration-inhibition curve. Consider `COC(=O)[C@@H]1C[C@H](Oc2ncc(Br)cc2N2CCOC3(COC3)[C@@H]2C)CN1c1nc(C(F)(F)F)nc2c1oc1ccccc12` [P02 of PCT/EP2022/062480], for which the values for the IC50 in series [1], in series [2] and in series [3] were 5330 nM, 17100 nM and 444 nM, respectively.
Take `C#Cc1cnc(O[C@H]2C[C@@H](C(=O)OC)N(c3nc(C(F)(F)F)nc4c3oc3ccccc34)C2)c(N2CCOC3(COC3)[C@@H]2C)c1` [P03 of PCT/EP2022/062480]: the IC50 in series [1] is 1090 nM; in series [2] it was 22800 nM; in series [3], 188 nM.
For the molecule `COC(=O)[C@@H]1C[C@H](Oc2ncccc2N2CCOC3(COC3)[C@@H]2C)CN1c1nc(C(F)F)nc2c1oc1ccccc12` [P01 of PCT/EP2022/062480], the results for the IC50 in series [1], in series [2] and in series [3] were 1310 nM, 26100 nM and 358 nM, respectively.
For `C#Cc1cnc(O[C@H]2C[C@@H](C(=O)OC)N(c3nc(C(F)(F)F)nc4c3oc3ccccc34)C2)c([C@@]2(F)CCS(=O)(=O)C[C@@H]2C)c1` [P01 of PCT/EP2022/062496], the IC50 was 67 nM in series [1], above 16600 nM in series [2] and 11 nM in series [3].
In the case of `C[C@H]1CN2CC[C@]1(F)c1cc(Cl)cnc1O[C@H]1C[C@@H](C(=O)OC(C)(C)C)N(C1)c1nc(nc3c1oc1ccccc13)CC(=O)NCCCC2=O`, the ring closure, yield of all isomers in series [4] (from C[C@H]1CN(C(=O)CCCN)CC[C@]1(F)c1cc(Cl)cnc1O[C@H]1C[C@@H](C(=O)OC(C)(C)C)N(c2nc(CC(=O)O)nc3c2oc2ccccc23)C1, DMF, 10.0 mM) was 42%.
`COc1ncccc1-c1cnc(O[C@H]2C[C@@H](C(=O)O)N(c3nc(C(F)(F)F)nc4c3oc3ccccc34)C2)c(N2CCOC3(COC3)[C@@H]2C)c1` [Ex. 3.14 of PCT/EP2022/062480]: the IC50 in series [1] was 26 nM; in series [2] it was 7830 nM; in series [3], 10 nM.
For `C[C@@H]1N(c2cc(Br)cnc2O[C@H]2C[C@@H](C(=O)O)N(c3nc(C(F)(F)F)nc4c3oc3ccccc34)C2)CCOC12COC2` [Ex. 1.10 of PCT/EP2022/062480], the results for the IC50 in series [1], in series [2] and in series [3] were 33 nM, 16100 nM and 91 nM, respectively.
As for `COC(=O)[C@@H]1C[C@H](Oc2ncc(Cl)cc2[C@@]2(F)CCS(=O)(=O)C[C@@H]2C)CN1c1nc(C(F)F)nc2c1oc1ccccc12` [P02 of PCT/EP2022/062496], the IC50 is 140 nM in series [1], above 16600 nM in series [2] and 29 nM in series [3].
On to `COC(=O)[C@@H]1C[C@H](Oc2ncc(-c3cccnc3OC)cc2N2CCOC3(COC3)[C@@H]2C)CN1c1nc(C(F)(F)F)nc2c1oc1ccccc12` [P04 of PCT/EP2022/062480], for which the IC50 was 2750 nM in series [1], above 16600 nM in series [2] and 67 nM in series [3].
`C[C@H]1CS(=O)(=O)CC[C@]1(F)c1cc(Cl)cnc1O[C@H]1C[C@@H](C(=O)O)N(c2nc(C(F)F)nc3c2oc2ccccc23)C1` [Ex. 1.13 of PCT/EP2022/062496]: the IC50 in series [1] was 6 nM; in series [2] it was 22500 nM; in series [3], 6 nM.
Regarding `C[C@@H]1N(c2cccnc2O[C@H]2C[C@@H](C(=O)O)N(c3nc(C(F)F)nc4c3oc3ccccc34)C2)CCOC12COC2` [Ex. 4.04 of PCT/EP2022/062480], the IC50 in series [1] is 77 nM; in series [2], above 16600 nM; in series [3], 386 nM.
As for `CO[C@]1(c2cc(Cl)cnc2O[C@H]2C[C@@H](C(=O)O)N(c3nc(C(F)F)nc4c3oc3ccccc34)C2)CC(C)(C)S(=O)(=O)C[C@@H]1C` [Ex. 1.05 of PCT/EP2022/062496], the IC50 in series [1] was 135 nM; in series [2] it was 13200 nM; in series [3], 44 nM.
`C#Cc1cnc(O[C@H]2C[C@@H](C(=O)O)N(c3nc(C(F)(F)F)nc4c3oc3ccccc34)C2)c(N2CCOC3(COC3)[C@@H]2C)c1` [Ex. 1.12 of PCT/EP2022/062480]: the IC50 in series [1] was 15 nM; in series [2] it was 11900 nM; in series [3], 7 nM.
Molecule `C[C@H]1CN2CC[C@]1(F)c1cc(Cl)cnc1O[C@H]1C[C@@H](C(=O)OC(C)(C)C)N(C1)c1nc(nc3c1oc1ccccc13)CC(=O)NCCOC2=O` came in with a ring closure, yield of all isomers in series [4] (from C[C@H]1CN(C(=O)OCCN)CC[C@]1(F)c1cc(Cl)cnc1O[C@H]1C[C@@H](C(=O)OC(C)(C)C)N(c2nc(CC(=O)O)nc3c2oc2ccccc23)C1, DMA, 15.75 mM) of 11.3%.
On to `Cc1nc(N2C[C@@H](CC(=O)Nc3ccc(-c4ccccc4)cc3)C[C@H]2C(=O)O)c2oc3ccccc3c2n1` [Compound 5 (BBL0100455), reference compound], for which the IC50 is 55 nM at Human cGAS enzyme, above 10000 nM in series [5], below 1000 nM in the series on THP-1 and above 10000 nM in series [6].
Turning to `COC(=O)[C@@H]1C[C@H](Oc2ncc(Cl)cc2[C@@]2(OC)CC(C)(C)S(=O)(=O)C[C@@H]2C)CN1c1nc(C(F)F)nc2c1oc1ccccc12` [P03 of PCT/EP2022/062496], the IC50 in series [1] is 1990 nM; in series [2], 20600 nM; in series [3] it was 202 nM.
In the case of `C#Cc1cnc(O[C@H]2C[C@@H](C(=O)O)N(c3nc(C(F)(F)F)nc4c3oc3ccccc34)C2)c([C@@]2(F)CCS(=O)(=O)C[C@@H]2C)c1` [Ex. 2.12 of PCT/EP2022/062496], the results for the IC50 in series [1], in series [2] and in series [3] were 8 nM, 21800 nM and 8 nM, respectively.
